Test results: patent publication US10172355B2, “Safened herbicidal compositions including 4-amino-3-chloro-5-fluoro-6-(4-chloro-2-fluoro-3-methoxyphenyl)pyridine-2-carboxylic acid or a derivative thereof for use in rice” (Dow AgroSciences LLC, priority 2012, dated 2019)

Legend:
Type in all cases: in vivo
ORYSA=Orysa sativa, Rice [1] = assay: In-water applied herbicides and safeners in transplanted paddy rice, visual injury; conditions: in-water
Protocol: Weed seeds or nutlets of the desired test plant species were planted in puddled soil (mud) prepared by mixing a shredded, non-sterilized mineral soil (50.5 percent silt, 25.5 percent clay, and 24 percent sand, with a pH of about 7.6 and an organic matter content of about 2.9 percent) and water at a 1:1 volumetric ratio. The prepared mud was dispensed in 365 mL aliquots into 16-ounce (oz.) non-perforated plastic pots with a surface area of 86.59 square centimeters (cm^2) leaving a headspace of 3 centimeters (cm) in each pot. Rice seeds were planted in Sun Gro MetroMix® 306 planting mixture, which typically has a pH of 6.0 to 6.8 and an organic matter content of about 30 percent, in plastic plug trays. Seedlings at the second or third leaf stage of growth were transplanted into 860 mL of mud contained in 32-oz. non-perforated plastic pots with a surface area of 86.59 cm^2 4 days prior to herbicide application. The paddy was created by filling the headspace of the pots with 2.5 to 3 cm of water. When required to ensure good germination and healthy plants, a fungicide treatment and/or other chemical or physical treatment was applied. The plants were grown for 4-22 days in a greenhouse with an approximate 14 h photoperiod which was maintained at about 29′C during the day and about 26° C. during the night. Nutrients were added as Osmocote® (17:6:10, N:P:K+minor nutrients) at 2 g per 16-oz. pot and 4 g per 32-oz. pot. Water was added on a regular basis to maintain the paddy flood, and supplemental lighting was provided with overhead metal halide 1000-Watt lamps as necessary. The plants were employed for testing when they reached the second or third true leaf stage.
(§1) Treatments consisted of the acid or esters of 4-amino-3-chloro-5-fluoro-6-(4-chloro-2-fluoro-3-methoxy-phenyl)pyridine-2-carboxylic acid (compound A) and various safeners alone and in combination. Forms of compound A were applied on an acid equivalent basis. Safener components were applied on an active ingredient or acid equivalent basis depending on the compound.
Treatment requirements for each compound or herbicidal component were calculated based upon the rates being tested, the concentration of active ingredient or acid equivalent in the formulation, an application volume of 2 mL per component per pot, and an application area of 86.59 cm^2 per pot.
For formulated compounds, a measured amount was placed in an individual 100 or 200 mL glass vial and was dissolved in a volume of 1.25% (v/v) Agri-Dex® crop oil concentrate to obtain application solutions.
For technical grade compounds, a weighed amount can be placed in an individual 100 to 200 mL glass vial and dissolved in a volume of acetone to obtain concentrated stock solutions. […] The concentrated stock solutions obtained can be diluted with an equivalent volume of an aqueous mixture containing 2.5% (v/v) crop oil concentrate so that the final application solutions contain 1.25% (v/v) crop oil concentrate.
Applications were made by injecting with a pipetter appropriate amounts of the application solutions, individually and sequentially, into the aqueous layer of the paddy. Control plants were treated in the same manner with the solvent blank. Applications were made so that all treated plant material received the same concentrations of acetone and crop oil concentrate.
The treated plants and control plants were placed in a greenhouse as described above and water was added as needed to maintain a paddy flood. After approximately 3 weeks the condition of the test plants as compared with that of the untreated plants was determined visually and scored on a scale of 0 to 100 percent where 0 corresponds to no injury or growth inhibition and 100 corresponds to complete kill.
Colby's equation was used to determine the herbicidal effects expected from the mixtures (Colby, S. R. 1967. Calculation of the synergistic and antagonistic response of herbicide combinations. Weeds 15:20-22.). […]

ORYSA=Orysa sativa, Rice [2] = assay: Postemergence foliar-applied herbicides and safeners in direct-seeded rice, visual injury; conditions: foliar; for Visual Injury (%) - 21 DAA ORYSA-‘Clearfield 171’ Obs / Visual Injury (%) - 21 DAA ORYSA-‘Neptune’ Obs / Visual Injury (%) - 21 DAA ORYSA-‘Wells’ Obs: Tables 1,2,7,8
From the text: (§2) Seeds or nutlets of the desired test plant species were planted in a soil matrix prepared by mixing a loam or sandy loam soil (e.g., 28.6 percent silt, 18.8 percent clay, and 52.6 percent sand, with a pH of about 5.8 and an organic matter content of about 1.8 percent) and calcareous grit in an 80 to 20 ratio. The soil matrix was contained in plastic pots with a surface area of 84.6 square centimeters (cm^2). When required to ensure good germination and healthy plants, a fungicide treatment and/or other chemical or physical treatment was applied. The plants were grown for 8-22 days in a greenhouse with an approximate 14 hr photoperiod which was maintained at about 29° C. during the day and 26° C. during the night. Nutrients (Peters Excel 15-5-15 5-Ca 2-Mg and iron chelate) were applied in the irrigation solution as needed and water was added on a regular basis. Supplemental lighting was provided with overhead metal halide 1000-Watt lamps as necessary. The plants were employed for testing when they reached the second or third true leaf stage.
as §1, with “safener components” for “safeners”
(§3) Treatment requirements were calculated based upon the rates being tested, the concentration of active ingredient or acid equivalent in the formulation, and a 12 mL application volume at a rate of 187 L/ha.
(§4) For treatments comprised of formulated compounds, measured amounts of compounds were placed individually in 25 mL glass vials and diluted in a volume of 1.25% (v/v) Agri-dex crop oil concentrated to obtain 12× stock solutions. […] Application solutions were prepared by adding an appropriate amount of each stock solution (e.g., 1 mL) and diluted to the appropriate final concentrations with the addition of 10 mL of an aqueous mixture of 1.25% (v/v) Agri-dex crop oil concentrate so that the final spray solutions contained 1.25% (v/v) Agri-dex crop oil concentrate.
(§5) For treatments comprised of technical compounds, weighed amounts were placed individually in 25 mL glass vials and dissolved in a volume of 97:3 v/v acetone/DMSO to obtain 12× stock solutions. […] Application solutions were prepared by adding an appropriate amount of each stock solution (e.g., 1 mL) and diluted to the appropriate final concentrations with the addition of 10 mL of an aqueous mixture of 1.5% (v/v) Agri-dex crop oil concentrate so that the final spray solutions contained 1.25% (v/v) Agri-dex crop oil concentrate. When technical materials were used, the concentrated stock solutions were added to the spray solutions so that the final acetone and DMSO concentrations of the application solutions were […], respectively.
(§6) For treatments comprised of formulated and technical compounds, weighed amounts of the technical materials were placed individually in 25 mL glass vials and dissolved in a volume of 97:3 v/v acetone/DMSO to obtain 12× stock solutions, and measured amounts of the formulated compounds were placed individually in 25 mL glass vials and diluted in a volume of 1.5% (v/v) Agri-dex crop oil concentrate or water to obtain 12× stock solutions. […] Application solutions were prepared by adding an appropriate amount of each stock solution (e.g., 1 mL) and diluted to the appropriate final concentrations with the addition of an appropriate amount of an aqueous mixture of 1.5% (v/v) Agri-dex crop oil concentrate so that the final spray solutions contained 1.25% (v/v) Agri-dex crop oil concentrate. When required, additional water and/or 97:3 v/v acetone/DMSO was added to individual application solutions so that the final acetone and DMSO concentrations of the application solutions being compared were 8.1% and 0.25%, respectively. […]

[3] = system: ECHCG=Echinochloa crus-galli; assay: Postemergence foliar-applied herbicides and safeners, visual injury of weed; conditions: Echinochloa crus-galli, foliar, 480 h, read-out: Visual Injury (%) - 20 DAA ECHCG Obs, foliar; Compound A form 140 g ae/ha alone; trial of Tables 5,9,11,13
From the text: as §2
as §1, with “safener components” for “safeners”
as §3, §4, §5, §6

SMILES | Visual Injury (%) - 21 DAA ORYSA - ‘M202’ Obs (ORYSA=Orysa sativa, Rice [1]; safener 140 g ai/ha alone) [%] | Visual Injury (%) - 21 DAA ORYSA - ‘M202’ Obs (ORYSA=Orysa sativa, Rice [1]; safener 280 g ai/ha alone) [%] | Visual Injury (%) - 21 DAA ORYSA - ‘M202’ Obs (ORYSA=Orysa sativa, Rice [1]; safener 560 g ai/ha alone) [%] | Visual Injury (%) - 21 DAA ORYSA-‘Clearfield 171’ Obs (ORYSA=Orysa sativa, Rice [2]; safener 70 g ai/ha alone) [%] | Visual Injury (%) - 21 DAA ORYSA-‘Neptune’ Obs (ORYSA=Orysa sativa, Rice [2]; safener 70 g ai/ha alone) [%] | Visual Injury (%) - 21 DAA ORYSA-‘Wells’ Obs (ORYSA=Orysa sativa, Rice [2]; safener 70 g ai/ha alone) [%] | Visual Injury (%) - 21 DAA ORYSA-‘Clearfield 171’ Obs (ORYSA=Orysa sativa, Rice [2]; safener 140 g ai/ha alone) [%] | Visual Injury (%) - 21 DAA ORYSA-‘Neptune’ Obs (ORYSA=Orysa sativa, Rice [2]; safener 140 g ai/ha alone) [%] | Visual Injury (%) - 21 DAA ORYSA-‘Wells’ Obs (ORYSA=Orysa sativa, Rice [2]; safener 140 g ai/ha alone) [%] | Visual Injury (%) - 21 DAA ORYSA-‘Neptune’ Obs (ORYSA=Orysa sativa, Rice [2]; safener 280 g ai/ha alone) [%] | Visual Injury (%) - 21 DAA ORYSA-‘Wells’ Obs (ORYSA=Orysa sativa, Rice [2]; safener 280 g ai/ha alone) [%] | Visual Injury (%) - 21 DAA ORYSA - ‘M202’ Obs (ORYSA=Orysa sativa, Rice [1]; Compound A form 140 g ae/ha alone) [%] | pest or weed control at 140 g/ha [3] [%] | Visual crop injury (%) at 140 g/ha (ORYSA=Orysa sativa, Rice [2]; Oryza sativa, 480 h, read-out: Visual Injury (%) - 20 DAA ORYSA-‘Clearfield 171’ Obs, foliar, Compound A form 140 g ae/ha alone, trial of Tables 5,9,11,13) [%]
CCOC(=O)C1=NOC(c2ccccc2)(c2ccccc2)C1 [Isoxadifen-ethyl, ethyl 4,5-dihydro-5,5-diphenyl-3-isoxazole-carboxylate] | 0 | 0 | 0 | 0 | 0 | 0 | 0 | 0 | 0 | 0 | 0 | – | – | –
COC(=O)c1nc(-c2ccc(Cl)c(OC)c2F)c(F)c(N)c1Cl [Methyl] | – | – | – | – | – | – | – | – | – | – | – | 17.5 | 98 | 12
